Experimental data from patent US9540370B2, “Heterocyclic compounds and their use as glycogen synthase kinase-3 inhibitors” (ABBVIE DEUTSCHLAND GMBH & CO. KG, priority 2010, dated 2017).

Target: T1, human Glycogen Synthase Kinase-3 beta (hGSK-3β) (Homo sapiens, UniProt P49841)
T1 construct: purchased Upstate cell signaling solutions
Assay: Biochemical hGSK-3Beta assay (33P incorporation into biotinylated peptide substrate)
Details: 10 μM ATP, 30 minutes at room temperature; read-out: GSK-3β IC50
Description: Methods—Biochemical hGSK-3Beta Assay
Compounds were tested for their ability to inhibit human Glycogen Synthase Kinase-3 beta (hGSK-3β) to phosphorylate biotin-[…](pS)EDEEE. Compounds were incubated with 0.5 μCi 33P-ATP, 10 μM ATP, 0.0125 U hGSK-3β (Upstate cell signaling solutions) and 1 μM substrate (biotin-[…](pS)EDEEE) in 50 mM HEPES, 10 mM MgCl2, […], 1 mM DTT, 0.0075% Triton, 2% DMSO (total volume 50 μL) for 30 minutes at room temperature. The incubation was stopped by addition of an equal volume of 100 mM EDTA, 4M NaCl. 80 μL of this mixture was added to streptavidin-coated Flash -plates (Perkin Elmer). Following a wash step, 33P incorporation was quantified on a MicroBeta microplate liquid scintillation counter (PerkinElmer). IC50s were determined by fitting a sigmoidal dose-response curve to the counts obtained at the different concentrations in GraphPad Prism.

T1 sequence (P49841 whole entry): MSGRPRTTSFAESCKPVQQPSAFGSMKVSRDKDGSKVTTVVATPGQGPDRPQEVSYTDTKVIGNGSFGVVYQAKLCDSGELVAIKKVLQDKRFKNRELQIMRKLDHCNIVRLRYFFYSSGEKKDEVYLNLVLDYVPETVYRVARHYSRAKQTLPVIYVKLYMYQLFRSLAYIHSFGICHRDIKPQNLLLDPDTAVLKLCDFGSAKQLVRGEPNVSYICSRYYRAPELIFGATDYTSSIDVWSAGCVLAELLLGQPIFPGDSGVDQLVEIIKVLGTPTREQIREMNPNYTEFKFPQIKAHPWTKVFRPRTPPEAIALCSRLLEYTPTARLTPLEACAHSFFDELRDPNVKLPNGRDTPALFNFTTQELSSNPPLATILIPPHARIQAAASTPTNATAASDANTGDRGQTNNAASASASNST

Compound	IC50
O=C(Nc1cccc(C2=CCOCC2)n1)Nc1ccnc2c(F)cccc12 [Example 1, 1-(6-(3,6-Dihydro-2H-pyran-4-yl)pyridin-2-yl)-3-(8-fluoroquinolin-4-yl)urea]	< 100 nM
O=C(Nc1cccc(C2CCOCC2)n1)Nc1ccnc2c(F)cccc12 [Example 2, 1-(8-Fluoroquinolin-4-yl)-3-(6-(tetrahydro-2H-pyran-4-yl)pyridin-2-yl)urea]	< 100 nM
O=C(Nc1cccc(C2=COCCC2)n1)Nc1ccnc2c(F)cccc12 [Example 3, 1-(6-(3,4-Dihydro-2H-pyran-5-yl)pyridin-2-yl)-3-(8-fluoroquinolin-4-yl)urea]	< 100 nM
O=C(Nc1cccc(C(F)(F)F)n1)Nc1ccnc2ccc(Br)cc12 [Example 16, 1-(6-Bromo-quinolin-4-yl)-3-(6-trifluoromethyl-pyridin-2-yl)-urea]	< 100 nM
O=C(Nc1cccc(C(F)(F)F)n1)Nc1ccnc2ccccc12 [Example 17, 1-(6-(Trifluoromethyl)pyridin-2-yl)-3-quinolin-4-yl-urea]	< 100 nM
O=C(Nc1cccc(C(F)(F)F)n1)Nc1ccnc2c(F)cc(F)cc12 [Example 18, 1-(6,8-Difluoroquinolin-4-yl)-3-(6-trifluoromethyl-pyridin-2-yl)-urea]	< 100 nM
O=C(Nc1cccc(C(F)(F)F)n1)Nc1ccnc2cc(Br)ccc12 [Example 19, 1-(7-Bromoquinolin-4-yl)-3-(6-trifluoromethyl-pyridin-2-yl)-urea]	< 100 nM
COc1ccc2c(NC(=O)Nc3cccc(C(F)(F)F)n3)ccnc2c1 [Example 21, 1-(7-Methoxyquinolin-4-yl)-3-(6-trifluoromethyl-pyridin-2-yl)-urea]	< 100 nM
N#Cc1cccc2c(NC(=O)Nc3cccc(C(F)(F)F)n3)ccnc12 [Example 23]	< 100 nM
O=C(Nc1cccc(C(F)(F)F)n1)Nc1ccnc2c(I)cccc12 [Example 24, 1-(8-Iodoquinolin-4-yl)-3-(6-trifluoromethyl-pyridin-2-yl)-urea]	< 100 nM
